Where a name gives a salt, the structure may show the parent alone. Read-outs that look alike come from different tables or passages of the source.

Data on six molecules can be found in patent US9480750B2, “Preparation of antibody or an antibody fragment targeted immunoliposomes for systemic administration of therapeutic or diagnostic agents and uses thereof” (GEORGETOWN UNIVERSITY, priority 1999, dated 2016).

The test system of series [1] is Panc I subcutaneous xenograft tumors. Put plainly: In vivo chemosensitization of pancreatic xenograft. Details: species or system mice. To be noted: GEMZAR alone, intraperitoneally. The protocol:
To show the universality of this delivery system two different human xenograft mouse tumor models (pancreatic cancer and breast cancer) were employed. In the first (FIG. 10A) Panc I subcutaneous xenograft tumors were induced in female athymic nude (NCR nu/nu) mice. When the tumors were 100-200 mm^3 in size the animals were injected with the chemotherapeutic agent GEMZAR® (intraperitoneally) and with […]-2 prepared by the method of this invention (I.V.). […] In addition to the I.V. injections the complex described above also was intratumorally injected. One group of animals received GEMZAR® only and a second control group received GEMZAR® plus the complex carrying empty vector.

The test system of the next series is cleaved caspase-3. Put plainly: Western blot of cleaved caspase-3 from mice serum. In kind it is in vivo, C57BL/6 mice. To be noted: CDDP alone. The procedure: The blood collected from the retroorbital sinus of mice was centrifuged at 1,000 rpm for 10 minutes at room temperature after coagulation at room temperature for 1 hr. The serum was transferred to a new tube and centrifuged again at 10,000 g for 20 minutes. The supernatant serum was purified using a P-30 Micro-Bio-Spin Chromatography Column (BIORAD, Hercules, Calif.). Fifteen microliters of the fractions was loaded on a 4% to 12% gradient NuPAGE gel (Invitrogen Life Technologies, Carlsbad, Calif.) and run until the 10 kDa protein marker has run off the gel (approximately 1.5 to 2 hours). After electrophoresis, the proteins were transferred onto a Protran BA 85 nitrocellulose transfer membrane (Schleicher and Schuell, BioScience, Keene, N. H.). Finally, a Western blot analysis for cleaved caspase-3 was performed with cleaved caspase-3 (17 kD) antibody. To block nonspecific binding, the membrane was incubated at room temperature for 1 hour with 5% nonfat dry milk in 10 mM Tris-HCl buffer, pH 8.0, containing 150 mM NaCl and 0.05% Tween 20 (TBST). […] The protein was detected using goat antirabbit secondary antibody (Jackson ImmunoResearch Laboratories, West Grove, Pa.), ECL Western blotting detection reagent, and Hyperfilm ECL (Amersham, Piscataway, N.J.).

The test system of series [2] is MDA-MB-435 human melanoma cells. Description: In vitro chemosensitization, XTT. In kind it is cell-based. On the technique in general: Tetrazolium dyes change colour on reduction, which living cells bring about.
For series [3] the following is noted: administered orally; cited from earlier work.
The next series concerns advanced NSCLC. To be noted: previously-treated advanced NSCLC; cited from earlier work.
In series [4] the test system is DU145 human prostate cancer cells. Description: In vitro chemosensitization, XTT. In kind it is cell-based.
Series [5] concerns normal human lung fibroblasts IMR-90. Description: In vitro chemosensitization of normal cells, XTT. In kind it is cell-based. To be noted: 2.5 uM Sunitinib malate, FIG. 43A-C. The protocol:
The above sensitization results with B16/F10 and MDA-MB-435 were dramatically different from the results with normal human lung fibroblasts IMR-90 under the same conditions. […] The ratio of single-chain antibody fragment to liposome in each complex was 1:30 (w:w). […] After 48 hours, XTT assays were performed to assess cell viability in response to treatments. Each point represents the mean of triplicate samples±standard deviation. […] UT=untransfected.

Series [6] deals with normal skin fibroblast cell line H500.
For series [7] the following is noted: TARCEVA plus gemcitabine; cited from earlier work.
The conditions of series [8]: cited from earlier work.

In the case of `Nc1ccn([C@@H]2O[C@H](CO)[C@@H](O)C2(F)F)c(=O)n1` [GEMZAR®, gemcitabine HCl], in [1], the tumor growth entry is reported as “not able to significantly inhibit pancreatic tumor growth”.
As for `[NH2][Pt]([NH2])([Cl])[Cl]` [CDDP, cisplatin], in the series with cleaved caspase-3, the “cleaved caspase-3 in serum” value is listed as “only a weak band”.
For the molecule `COc1cc2ncnc(Nc3ccc(F)c(Cl)c3)c2cc1OCCCN1CCOCC1` [Geftinib, Gefitinib], the “sensitization to TAXOTERE” value in series [2] (free Geftinib, 15 µM) is “did not sensitize the cells at all”. The half-lives in series [3] is approximately 46 h. Also, the “patients achieving tumor shrinkage or stabilization of their tumor” value in the series on advanced NSCLC is given as “Approximately 50%”.
Regarding `Cc1ccc(NC(=O)c2ccc(CN3CCN(C)CC3)cc2)cc1Nc1nccc(-c2cccnc2)n1` [Imatinib Mesylate], the “sensitization to TAXOTERE” value in series [2] (20 uM Imatinib Mesylate) is “does not sensitize the cells”.
`CCN(CC)CCNC(=O)c1c(C)[nH]c(/C=C2\C(=O)Nc3ccc(F)cc32)c1C` [Sunitinib malate]: the “sensitization to Mitoxantrone” value in series [4] (5 μM free Sunitinib malate) is “only minimal effect on sensitization”. In addition, the “sensitization to Mitoxantrone, TAXOTERE or Gemcitabine” value is “no significant increase in sensitization” in [5] and “no significant increase in sensitization” in series [6] (2.5 or 5 uM Sunitinib malate, FIG. 42A-C).
Regarding `C#Cc1cccc(Nc2ncnc3cc(OCCOC)c(OCCOC)cc23)c1` [Erlotinib, N-(3-ethynylphenyl)-6,7-bis(2-methoxyethoxy)-4-quinazolinamine], the “sensitization to TAXOTERE” value in [2] (free Erlotinib) is “only minimal effect”. In [7], the Diarrhea is given as 48%; the Rash is reported as 69%; the “dose reductions due to rash and diarrhea, each” value was “two percent”; the “study discontinuation due to rash and diarrhea” value was “up to one percent”. Also, in [4] (3.75 uM Erlotinib), the “sensitization to Mitoxantrone” value is reported as “does not sensitize the cells to Mitoxantrone”. The “sensitization to Mitoxantrone” value in [4] (7.5 uM Erlotinib) is “had no effect on the response to the chemotherapeutic agent”. Besides, the half-lives in series [3] was approximately 36 h. In series [8] (NSCLC single-agent trial), the “incidence of ILD-like events” value is on record as 0.8%. Moreover, in [8] (monotherapy 150 mg, NSCLC), the “Grade 3/4 diarrhea” value is reported as 6%; the “Grade 3/4 rash” value is recorded as 9%; the “patients discontinuing due to rash or diarrhea, each” value is 1%. The “sensitization to Mitoxantrone, TAXOTERE or Gemcitabine” value in series [6] (7.5 uM Erlotinib, FIG. 36A-C) is on record as “no significant increase in sensitization”.
